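Assay format: 96-well plates, 48-hour exposure. GI50 = concentration required for 50% inhibition of growth. Definition used: TGI = concentration required for complete inhibition of growth.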
Experiments:
Test in all cases: growth of human tumour cells (NCI), 48 h
SN12C renal = tested on: SN12C renal
NCI-H226 lung = tested on: NCI-H226 lung
OVCAR-4 ovarian = tested on: OVCAR-4 ovarian
T-47D breast = tested on: T-47D breast
IGROV1 ovarian = tested on: IGROV1 ovarian
HCT-15 colon = tested on: HCT-15 colon
OVCAR-5 ovarian = tested on: OVCAR-5 ovarian
SK-MEL-2 melanoma = tested on: SK-MEL-2 melanoma
OVCAR-3 ovarian = tested on: OVCAR-3 ovarian
UO-31 renal = tested on: UO-31 renal

| SMILES | GI50 (SN12C renal) [µM] | TGI (SN12C renal) [µM] | GI50 (NCI-H226 lung) [µM] | TGI (NCI-H226 lung) [µM] | GI50 (OVCAR-4 ovarian) [µM] | TGI (OVCAR-4 ovarian) [µM] | GI50 (T-47D breast) [µM] | TGI (T-47D breast) [µM] | GI50 (IGROV1 ovarian) [µM] | TGI (IGROV1 ovarian) [µM] | GI50 (HCT-15 colon) [µM] | TGI (HCT-15 colon) [µM] | GI50 (OVCAR-5 ovarian) [µM] | TGI (OVCAR-5 ovarian) [µM] | GI50 (SK-MEL-2 melanoma) [µM] | TGI (SK-MEL-2 melanoma) [µM] | GI50 (OVCAR-3 ovarian) [µM] | TGI (OVCAR-3 ovarian) [µM] | GI50 (UO-31 renal) [µM] | TGI (UO-31 renal) [µM] |
| --- | --- | --- | --- | --- | --- | --- | --- | --- | --- | --- | --- | --- | --- | --- | --- | --- | --- | --- | --- | --- |
| c1cnn2ncc(-c3ccnc(NCCCN4CCOCC4)n3)c2c1 | 8.2 | > 25 | 3.79 | > 16.8 | 11 | > 25 | 5.93 | > 21.3 | 7.51 | > 25 | 8.01 | > 25 | 7.28 | 24.9 | 5.12 | 13.9 | 6.16 | > 21.9 | 5.23 | 21 |
| O=C1/C(=C/c2ccccc2[N+](=O)[O-])Cc2ccccc21 | 2.54 | 9.17 | 2.1 | 9.03 | 2.95 | 29.4 | 2.22 | > 100 | 1.25 | 8.59 | 1.66 | 4.71 | 2.19 | 5.36 | 5.39 | 19.7 | 1.72 | 3.2 | 1.21 | 2.68 |
| NC(=O)c1csc(C2OC(CO)C(O)C2O)n1 (stereo not drawn) | – | > 8480 | 99.2 | > 9450 | – | 1160 | – | > 5620 | > 72.8 | 5650 | 4.97 | 1440 | – | > 9720 | – | 6440 | 22.2 | 7030 | 44.6 | 1740 |
| O=S(=O)(c1ccc(Cl)cc1)C(Cl)(Cl)Cl | 3.54 | 30.3 | 4.86 | 21.9 | 2.23 | > 63.3 | 1.39 | > 33.1 | 3.08 | 23.5 | 1.19 | > 100 | 12.7 | 69.6 | 3.05 | 19.9 | 0.886 | 4.45 | 0.298 | 11.5 |
| CN1CCN(C(=O)c2cc(-c3ccc4ncnc(N5CCc6cc(F)c(Cl)cc65)c4c3)cnc2N)CC1 | 0.15 | 10.5 | 0.309 | 2.76 | 0.3 | 4.22 | 0.0651 | 1.84 | 0.0467 | 0.595 | 0.251 | 2.63 | 0.29 | 13.8 | 0.238 | 1.02 | 0.248 | 1.49 | 0.0996 | 4.42 |
| COc1ccc(-c2cc(-c3ccc(C)cc3)nc3nc(=S)[nH]c(N)c23)cc1 | 20.5 | 48.6 | 17.5 | 41.7 | 74.3 | > 100 | 14.8 | 97.5 | 28.2 | 78.4 | 23.9 | 64.4 | 39.3 | 96.9 | 19 | 41 | 13.6 | 30.4 | 19.2 | 48 |
| COc1ccc2c(c1)N(CCO)C1=C(C(=O)OC1)C2c1cccc(F)c1 (stereo not drawn) | 0.776 | > 50 | 4.16 | > 50 | 1.83 | > 50 | 1.95 | > 50 | 0.433 | > 50 | 0.233 | > 50 | 2.07 | > 50 | 0.801 | > 36.2 | 0.188 | – | 0.413 | > 50 |
| NC(CSC1c2ccccc2-c2ccccc21)C(=O)O (stereo not drawn) | – | > 100 | – | > 100 | – | > 100 | – | > 100 | – | > 100 | – | > 100 | – | > 100 | – | > 100 | – | > 100 | – | > 100 |
| OCC12C3C4C5C3C1C5C42 (stereo not drawn) | – | > 100 | – | > 100 | – | > 100 | – | > 100 | – | > 100 | – | > 100 | – | > 100 | – | > 100 | – | > 100 | – | > 100 |
| O=C1OC(=O)C(=C\c2ccc3c(c2)OCO3)/C1=C/c1ccc2c(c1)OCO2 | – | > 100 | – | > 100 | – | > 100 | – | > 100 | – | > 100 | – | > 100 | – | > 100 | – | > 100 | – | > 100 | – | > 100 |
| N#Cc1c(N2CCOCC2)nc(=S)[nH]c1-c1ccco1 | 4.46 | > 100 | 3.94 | 63.5 | 16.9 | > 100 | 1.3 | 5.91 | 1.86 | 13 | 6.2 | > 100 | 4.18 | 88.3 | 2.38 | 33.6 | 7.93 | 49.8 | 2.67 | 72.3 |
| O=C(O)CN1CCN(CC(=O)O)CC(=O)[O][Hg][O]C(=O)C1 | 18.5 | 34.8 | > 100 | > 100 | 17.7 | 34 | 17 | 43.2 | 7.29 | 28.4 | 21.1 | 46.5 | 18.7 | 38.5 | 15.5 | 29.6 | 16.9 | 30.6 | 17.5 | 31.4 |
| O=C(/C=C\c1cccc([N+](=O)[O-])c1)/C=C/c1cccc([N+](=O)[O-])c1 | 67 | > 100 | 15.4 | > 100 | > 100 | > 100 | > 100 | > 100 | 2.44 | 6.3 | 5.1 | > 100 | 19.7 | > 100 | 19.5 | 49.4 | 2.18 | 4.32 | 1.7 | 4.9 |
| OCC1OC(n2cnc3c(N/N=C\c4ccccn4)ncnc32)C(O)C1O (stereo not drawn) | 0.107 | 7.48 | 0.525 | > 100 | 0.115 | – | 0.282 | 21 | 0.41 | 8.98 | 0.129 | > 100 | 0.467 | > 100 | 0.611 | > 100 | 0.319 | 3.04 | 0.235 | 1.44 |
| NNC(=O)CS(=O)(=O)Nc1ncccn1 | – | > 100 | – | > 100 | – | > 100 | – | > 100 | – | > 100 | – | > 100 | – | > 100 | – | > 100 | – | > 100 | – | > 100 |
| CC(C)C[C@H](NC(=O)CNC(=O)c1cc(Cl)ccc1Cl)B1OC(=O)CC(CC(=O)O)(C(=O)O)O1 (stereo partly drawn) | 0.0862 | 0.982 | 0.0141 | 0.0325 | 0.0733 | 19 | 0.0285 | 0.0819 | 0.231 | > 41.8 | 0.0578 | 5.98 | 0.0928 | 1.2 | 0.0399 | 0.239 | 0.0269 | 0.0791 | 0.0586 | 2 |
| CN1C(=O)N(C)C2C1NN=c1s/c(=C\c3ccc(C(F)(F)F)cc3)c(=O)n12 (stereo not drawn) | 3.89 | > 100 | 27 | > 100 | > 100 | > 100 | 1.72 | > 100 | 2.65 | > 100 | 0.488 | > 100 | 3.2 | > 100 | 2.59 | 24.1 | 0.493 | 17.7 | 2.21 | > 100 |
| OCc1ccc(N2CCCC2c2ccccc2)cc1Cl (stereo not drawn) | 8.22 | 21.7 | 0.126 | 0.325 | 1.39 | 14.2 | 0.358 | 4.71 | 0.187 | 0.813 | 4.24 | 20 | 0.351 | 1.52 | 2.31 | 6.97 | 2.3 | 10.1 | 9.28 | 27.4 |
| Fc1ccc(/C=N/n2c(-c3ccc(F)c(Cl)c3)nn(CNc3ccccc3C(F)(F)F)c2=S)cc1 | 39.3 | > 100 | 69.5 | > 100 | 57.4 | > 100 | 41.3 | > 100 | 83.6 | > 100 | 79.4 | > 100 | > 100 | > 100 | 46.6 | > 100 | 53.9 | > 100 | 34.8 | > 100 |
| O=C(/C=C/c1ccccc1)CCN1CCOCC1 | – | 35.9 | – | 51.6 | – | 42.5 | – | 44 | – | 27.1 | – | 24.4 | – | 27.1 | – | 44.5 | – | 33.3 | – | 26.6 |

— PubChem BioAssay (NCI)
